Assays:
[1] = biological target: T1, Ba/F3-ETV6-NTRK3 (Homo sapiens, UniProt Q16288); assay: Ba/F3-ETV6-NTRK3 cells proliferation assay; format: cell-based; details: 72 h, CellTiter Glo
T1 construct: Ba/F3 cells with TPM3-NTRK1 or ETV6-NTRK3 fusion mutation gene stably overexpressed named Ba/F3-TPM3-NTRK1 and Ba/F3-ETV6-NTRK3; fused on or other part: P41212 (Transcription factor ETV6)
In short: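 Ba/F3 cells stably expressing TPM3-NTRK1 or ETV6-NTRK3 fusions, 2000/well, exposed 72 h to compound at 300 to 0.05 nM final (3-fold series, 0.5% DMSO). Viability by CellTiter-Glo luminescence; IC50 by four-parameter nonlinear regression.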

[2] = biological target: T2, CYP2C8 (Homo sapiens, UniProt P10632); assay: Cytochrome P450 inhibition, CYP2C8; format: in vitro ADME; details: probe Paclitaxel (5 μM); 10 μM compound, human liver microsomes, substrate Paclitaxel; read-out: Inhibition percentage CYP2C8 (Paclitaxel)
T2 construct: from tissue; host or cells: human liver microsomes
T2 sequence (P10632 1-490): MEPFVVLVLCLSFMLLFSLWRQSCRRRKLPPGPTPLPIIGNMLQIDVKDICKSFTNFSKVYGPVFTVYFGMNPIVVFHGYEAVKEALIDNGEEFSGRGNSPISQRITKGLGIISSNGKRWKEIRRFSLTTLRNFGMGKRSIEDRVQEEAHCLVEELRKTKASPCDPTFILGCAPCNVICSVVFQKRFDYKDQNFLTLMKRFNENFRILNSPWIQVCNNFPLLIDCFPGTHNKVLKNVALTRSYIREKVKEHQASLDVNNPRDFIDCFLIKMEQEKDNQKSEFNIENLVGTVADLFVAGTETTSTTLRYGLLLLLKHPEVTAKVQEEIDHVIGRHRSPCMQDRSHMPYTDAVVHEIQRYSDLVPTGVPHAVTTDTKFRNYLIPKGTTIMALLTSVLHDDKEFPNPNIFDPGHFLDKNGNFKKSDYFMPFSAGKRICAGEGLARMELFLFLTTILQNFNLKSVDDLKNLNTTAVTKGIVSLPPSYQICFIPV
Experimental: (§1) Example 205 Cytochrome P450 Measurements
(§2) The cytochrome P450 was measured as the following procedure:
(§3) 1) A master solution containing phosphate buffer, ultra-pure H2O, MgCl2 solution and human liver microsomes was made according to Table 17, and then 1 μL of 2 mM of compound solution or 1 μL of DMSO (as without inhibitor control) was added to the above master solution. The final concentration of test compounds or control compounds was 10 μM.
3) For CYP2C8 inhibition, 1 μL of specific drug substrate (Paclitaxel: 1 mM) was added at the final concentration of 5 μM to the above solution.
(§4) 8) The mixture was pre-warmed at 37° C. for 5 min. The reaction was started by the addition of 20 μL of 10 mM NADPH solution at the final concentration of 1 mM and carried out at 37° C.
(§5) 9) The reaction was stopped by addition of 300 μL of cold quench solution (methanol containing internal standards (1S, 500 nM Labetalol, 100 nM Alprazolam and 2 μM Ketoprofen) at the designated time points (Phenacetin: 20 min; Paclitaxel: 10 min; Tolbutamide: 20 min; (s)-Mephenytoin: 20 min; Midazolam: 5 min; Testosterone: 10 min). Samples were vortexed for 5 minutes and centrifuged at 3220 g for 40 minutes at 4° C. And then 100 μL of the supernatant was transferred to a new 96-well plate with 100 μL or 200 μL water (depends on the LC-MS signal response and peak shape) for LC-MS/MS analysis.
(§6) All experiments were performed in duplicates.
(§7) Inhibition percentages for compounds against CYP1A2, CYP2C8, CYP2C9, CYP2C19, and […]

[3] = biological target: T3, CYP2C9 (Homo sapiens, UniProt P11712); assay: Cytochrome P450 inhibition, CYP2C9; format: in vitro ADME; details: probe Tolbutamide (200 μM); 10 μM compound, human liver microsomes, substrate Tolbutamide; read-out: Inhibition percentage CYP2C9 (Tolbutamide)
T3 construct: from tissue; host or cells: human liver microsomes
Experimental: as §1, §2, §3
4) For CYP2C9 inhibition, 1 μL of specific drug substrate (Tolbutamide: 40 mM) was added at the final concentration of 200 μM to the above solution.
as §4, §5, §6, §7

[4] = biological target: T4, CYP2C19 (Homo sapiens, UniProt P33261); assay: Cytochrome P450 inhibition, CYP2C19; format: in vitro ADME; details: probe (s)-Mephenytoin (50 μM); 10 μM compound, human liver microsomes, substrate (s)-Mephenytoin; read-out: Inhibition percentage CYP2C19 ((s)-Mephenytoin)
T4 construct: from tissue; host or cells: human liver microsomes
Experimental: as §1, §2, §3
5) For CYP2C19 inhibition, 1 μL of specific drug substrate ((s)-Mephenytoin: 10 mM) was added at the final concentration of 50 μM to the above solution.
as §4, §5, §6, §7

[5] = biological target: NTRK1-G595R (Homo sapiens, UniProt P04629, G595R); assay: NTRK1-G595R cell proliferation assay (Table 13); format: cell-based
Sequence of NTRK1-G595R (P04629 33-796 G595R): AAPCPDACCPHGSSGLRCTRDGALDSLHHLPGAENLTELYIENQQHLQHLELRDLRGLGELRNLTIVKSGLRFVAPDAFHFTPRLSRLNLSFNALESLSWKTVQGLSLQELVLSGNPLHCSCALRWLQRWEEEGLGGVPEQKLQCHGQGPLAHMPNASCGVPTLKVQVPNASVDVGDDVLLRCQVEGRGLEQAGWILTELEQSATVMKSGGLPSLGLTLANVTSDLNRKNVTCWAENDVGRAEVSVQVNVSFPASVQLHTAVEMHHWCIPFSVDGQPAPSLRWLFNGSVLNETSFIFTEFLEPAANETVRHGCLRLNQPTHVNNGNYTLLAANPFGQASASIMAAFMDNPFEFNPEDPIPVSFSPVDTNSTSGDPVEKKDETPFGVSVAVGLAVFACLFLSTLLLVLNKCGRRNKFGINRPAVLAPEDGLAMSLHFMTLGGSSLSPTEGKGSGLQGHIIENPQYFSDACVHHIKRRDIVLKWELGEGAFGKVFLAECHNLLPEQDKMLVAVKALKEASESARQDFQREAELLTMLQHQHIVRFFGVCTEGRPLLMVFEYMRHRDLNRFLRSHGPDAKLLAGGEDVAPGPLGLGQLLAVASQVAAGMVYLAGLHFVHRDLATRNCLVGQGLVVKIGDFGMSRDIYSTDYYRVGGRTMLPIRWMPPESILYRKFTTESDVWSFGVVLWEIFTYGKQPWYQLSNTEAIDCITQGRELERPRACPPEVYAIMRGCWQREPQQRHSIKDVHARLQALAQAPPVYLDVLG

T1 sequence (Q16288 whole entry, the tested form may be a part): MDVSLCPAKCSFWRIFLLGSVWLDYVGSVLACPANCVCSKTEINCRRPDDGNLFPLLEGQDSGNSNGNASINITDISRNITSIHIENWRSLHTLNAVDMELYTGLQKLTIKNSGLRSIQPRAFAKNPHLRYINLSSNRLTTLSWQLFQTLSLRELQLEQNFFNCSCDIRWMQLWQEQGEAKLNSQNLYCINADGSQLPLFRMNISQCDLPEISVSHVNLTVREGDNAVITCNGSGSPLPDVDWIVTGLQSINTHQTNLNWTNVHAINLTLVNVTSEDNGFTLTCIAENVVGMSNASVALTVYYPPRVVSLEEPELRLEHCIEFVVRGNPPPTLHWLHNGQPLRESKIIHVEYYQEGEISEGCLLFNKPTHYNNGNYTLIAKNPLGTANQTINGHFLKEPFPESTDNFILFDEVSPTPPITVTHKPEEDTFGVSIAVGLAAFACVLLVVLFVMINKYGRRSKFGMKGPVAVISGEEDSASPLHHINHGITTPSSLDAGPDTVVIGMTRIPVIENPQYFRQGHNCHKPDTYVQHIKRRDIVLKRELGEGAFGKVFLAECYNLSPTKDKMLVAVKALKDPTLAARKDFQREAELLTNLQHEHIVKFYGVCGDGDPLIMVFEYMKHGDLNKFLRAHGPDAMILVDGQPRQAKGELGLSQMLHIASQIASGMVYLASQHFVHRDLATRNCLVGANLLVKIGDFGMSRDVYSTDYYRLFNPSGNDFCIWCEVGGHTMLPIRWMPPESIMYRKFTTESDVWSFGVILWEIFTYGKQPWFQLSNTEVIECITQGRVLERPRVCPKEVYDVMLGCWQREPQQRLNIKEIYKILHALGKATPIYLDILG
T3 sequence (P11712 whole entry): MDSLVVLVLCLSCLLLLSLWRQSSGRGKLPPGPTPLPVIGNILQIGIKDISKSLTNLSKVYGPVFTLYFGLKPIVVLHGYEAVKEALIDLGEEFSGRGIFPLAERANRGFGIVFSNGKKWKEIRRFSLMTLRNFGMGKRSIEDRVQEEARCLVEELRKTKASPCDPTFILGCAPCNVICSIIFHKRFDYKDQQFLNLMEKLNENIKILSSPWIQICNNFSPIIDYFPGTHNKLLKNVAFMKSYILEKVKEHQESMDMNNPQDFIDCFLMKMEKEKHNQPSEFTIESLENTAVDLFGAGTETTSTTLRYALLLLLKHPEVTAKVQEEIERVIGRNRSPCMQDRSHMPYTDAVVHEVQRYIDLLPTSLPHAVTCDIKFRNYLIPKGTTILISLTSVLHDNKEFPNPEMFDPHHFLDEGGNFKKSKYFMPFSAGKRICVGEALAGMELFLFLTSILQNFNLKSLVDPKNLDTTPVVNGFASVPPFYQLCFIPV
T4 sequence (P33261 whole entry): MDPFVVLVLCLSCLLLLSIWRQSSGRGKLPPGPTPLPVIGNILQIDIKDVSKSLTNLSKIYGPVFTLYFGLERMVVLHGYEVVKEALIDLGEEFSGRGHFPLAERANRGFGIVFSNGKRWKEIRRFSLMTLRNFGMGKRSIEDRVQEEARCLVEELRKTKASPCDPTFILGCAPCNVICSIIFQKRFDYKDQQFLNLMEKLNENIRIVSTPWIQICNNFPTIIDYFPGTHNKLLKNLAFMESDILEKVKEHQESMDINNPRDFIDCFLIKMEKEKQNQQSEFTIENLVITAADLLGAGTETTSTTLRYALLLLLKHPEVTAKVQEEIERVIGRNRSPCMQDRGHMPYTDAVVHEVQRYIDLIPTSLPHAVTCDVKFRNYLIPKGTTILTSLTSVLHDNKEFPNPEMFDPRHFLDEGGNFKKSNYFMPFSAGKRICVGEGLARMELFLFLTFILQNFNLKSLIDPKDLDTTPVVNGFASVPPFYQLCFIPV

Row | Structure (SMILES) | IC50 [1] [nM] | inhibition at 10 min, 10 µM [2] [%] | inhibition at 20 min, 10 µM [3] [%] | inhibition at 20 min, 10 µM [4] [%] | IC50 [5] [nM]
1 | C[C@H](O)c1nnc(-c2cnn3ccc(N4CCC[C@@H]4c4cc(F)ccc4F)nc23)[nH]1 [Compound 4, (S)-1-(5-(5-((R)-2-(2,5-difluorophenyl)pyrrolidin-1-yl)pyrazolo[1,5-a]pyrimidin-3-yl)-4H-1,2,4-triazol-3-yl)ethan-1-ol] | 2.78 | 18.2 | 5.96 | 7.23 | 
2 | OC(c1nnc(-c2cnn3ccc(N4CCC[C@@H]4c4cc(F)ccc4F)nc23)[nH]1)C(F)(F)F (stereo partly drawn) [Compound 47, 1-(5-(5-((R)-2-(2,5-difluorophenyl)pyrrolidin-1-yl)pyrazolo[1,5-a]pyrimidin-3-yl)-4H-1,2,4-triazol-3-yl)-2,2,2-trifluoroethan-1-ol] |  | 32.8 | 50.4 | 20.3 | 
3 | C[C@H](N)c1nnc(-c2cnn3ccc(N4CCC[C@@H]4c4cc(F)ccc4F)nc23)[nH]1 [Compound 11, (S)-1-(5-(5-((R)-2-(2,5-difluorophenyl)pyrrolidin-1-yl)pyrazolo[1,5-a]pyrimidin-3-yl)-4H-1,2,4-triazol-3-yl)ethan-1-amine] | 5.79 |  |  |  | 

Now from value to molecule:

Row | IC50 [1] [nM] | inhibition at 10 min, 10 µM [2] [%] | inhibition at 20 min, 10 µM [3] [%] | inhibition at 20 min, 10 µM [4] [%] | IC50 [5] [nM] | Structure (SMILES)
4 |  | 19.3 | 25.4 | 13 |  | Cc1nnc(-c2cnn3ccc(N4CCCC4c4cc(F)ccc4F)nc23)[nH]1 (stereo not shown) [Comparative compound A, 5-[2-(2,5-Difluorophenyl)pyrrolidin-1-yl]-3-(5-methyl-1H-1,2,4-triazol-3-yl)pyrazolo[1,5-a]pyrimidine, reference compound]
5 | 5.68 | 1.37 | 22.7 | 6.79 | 107 | CC(C)(O)c1nnc(-c2cnn3ccc(N4CCC[C@@H]4c4cc(F)ccc4F)nc23)[nH]1 [Compound 7, (R)-2-(5-(5-(2-(2,5-difluorophenyl)pyrrolidin-1-yl)pyrazolo[1,5-a]pyrimidin-3-yl)-4H-1,2,4-triazol-3-yl)propan-2-ol]

— US20210395256A1, “TYROSINE KINASE INHIBITORS, COMPOSITIONS AND METHODS THERE OF” (Betta Pharmaceuticals Co., Ltd., priority 2018, published 2021)
